The source of these data is US12447216B2, “Biogenic hemin-based MRI contrast agents, and compositions and methods thereof” (University of Massachusetts, priority 2017, dated 2025).

The conditions of series [1]: only in a rare case; cited from earlier work.
Series [2] in a line: T1 relaxivity (r1) measurement and T1-weighted in vitro MR imaging. It is filed as physicochemical. How it is done: Hematin was studied for its properties in MR imaging.
(§1) FIG. 1 is a graph showing r1 values and 1/T1 values according to Fe concentrations of metalloporphyrin-based MRI-CAs after dispersion in water. […] To further evaluate its MRI performance in vivo, hematin at a dose of 2 mg/kg/day, which is within the recommended range for clinical use, was administered into the tail veins of nude mice.
The composition of the prepared He-PEG was confirmed by NMR spectroscopy. […] The ^1H NMR spectrum of the He-PEG nanoparticles confirmed the successful conjugation of He with PEG2000. The magnetic property of the produced He-PEG particles was determined by measuring the longitudinal relaxivity values, which referred to the slope of the 1/T1 (R1) plot versus Fe ion concentration.
FIGS. 5 and 6 show r1 values and 1/T1 values according to Fe concentrations of He—OH after dispersion in water.

A short description of series [3]: Body weight monitoring after tail vein injection. It counts as in vivo. Conditions: mice, versus PBS control, 2 weeks. The text has this:
(§2) The biocompatibility of hematin for injection was comprehensively investigated, for example, via blood routine examination, histological analysis, and body weight monitoring.

On the set-up of series [4]: species or system mice. Conditions: mouse, in vivo, iv.
Source text: as §2
Another group of mice injected with PBS were used as control.
Meanwhile, blood samples were collected at different intervals after treatment with HeOH-PEG. […] Another group of mice injected of PBS were used as control.

Series [5] is described as follows: In vivo MR imaging / MR angiography after tail vein injection. Conditions: nude mice, 2 mg/kg/day, FIG. 2. The method, then:
as §1
To study the potential application of HeOH-PEG for in vivo MRI, a series of MR imaging were performed at different time points after HeOH-PEG was injected via tail vein into health node mice (500 μL, 0.48 mmol […] per kg mice). FIG. 11 is the 3D image of MR angiography acquired from the mouse after intravenous injection with HeOH-PEG.
The MR signal enhancement with excellent contrast in the vasculature lasted until 60 min post injection.

The nature of series [6]: Histological analysis (hematoxylin and eosin) of major organs. It is filed as in vivo. The conditions noted are these: mice; 14 days after administration. The method, then: as §2
Subsequently, hematoxylin and eosin examinations were performed on major organs (e.g., heart, liver, spleen, lung, and kidney) collected from healthy mice and those treated with HeOH-PEG. […] No significant differences were found between the cellular morphology of the studied organs in the HeOH-PEG treated group and the control group (FIG. 10).

Consider `C=CC1=C(C)c2cc3[n-]c(cc4[n-]c(cc5nc(cc1n2)C(C)=C5C=C)c(C)c4CCC(=O)O)c(CCC(=O)O)c3C.O.[Fe+2]` [hematin], for which the “excessive hematin dose reported to induce reversible renal shutdown” value in series [1] is 12.2 mg/kg. Further, in series [2] (3.0 T MR scanner, dispersion in water, FIG. 1), the T1 relaxivity value stood at 0.424 mM⁻¹ s⁻¹. In addition, in series [2] (dispersion in water), the “r1 value (longitudinal relaxivity, slope of 1/T1 versus Fe ion concentration)” value came to 0.424 s^−1 mM^−1 Fe. The “T1-weighted in vitro MR imaging signal” value in series [2] (various Fe concentrations) is on record as “concentration-dependent brightening effect”. In addition, in series [3], the body weight change result is “no significant changes compared to the control group”. For the same molecule, the “blood routine examination parameters versus normal range” value in series [4] is reported as “within the normal range”. Besides, the “T1 signal in vivo after intravenous administration” value in series [5] is “increase in the T1 signal was clearly observed in the heart and large vessel”. For the same molecule, the “histological changes in heart, liver, spleen, lung and kidney” value in series [6] is given as “no obvious histological changes”.
